Non-standard residues stand in square brackets, D forms with d. Residues, ends and D or L forms follow the SMILES beside them. pGlu = O=C1CC[C@@H](C(=O)O)N1
melting point [°C]	SMILES
173 to 174	O=C(O)c1cc(S(=O)(=O)N2CCCC(OCc3ccccc3)C2)ccc1Cl (stereo not given)
157 to 158	O=C(Nc1ccc(Br)c(C(F)(F)F)c1)c1ccccc1[N+](=O)[O-]
148 to 149	CCN1c2ncc([N+](=O)[O-])cc2C(=O)N(C)c2cccnc21
180 to 183	Nc1ncnc2c1ncn2Cc1oc2ccc(F)cc2c(=O)c1-c1cccc(F)c1
110 to 111	CC(NC(=O)c1c(Cl)ccnc1Cl)c1ncc(C(F)(F)F)cc1Cl (single isomer, unassigned; (+))
81.5 to 83.6	CC(=O)N1CCC(C(=O)N(CCCN2CC3CN(C(=O)c4c(C)ccnc4C)CC3C2)c2ccc(C)c(Cl)c2)CC1 (stereo not given)
158 to 160	CC(=O)NC1CCCn2c1c(C)c1ccccc12 (stereo not given)
84 to 85	c1ccc(N2CC3CCC(C2)O3)cc1
192 to 193	CC(C)(C)NC(=O)[C@@H]1C[C@@H](O)CN1C(=O)OC(C)(C)C
114 to 116	COC(=O)[C@H](CS)NC(=O)[C@@H]1CCC(=O)N1 ([pGlu]-Cys-OMe)
159	O=[N+]([O-])c1ccc2oc(-c3ccccc3)cc2c1
253 to 295	CC(=O)SCC(Cc1ccccc1)C(=O)NC(CCCNC(=N)N)C(=O)O (stereo not given)
124 to 127	O=C1C(CCO)Oc2ccccc2N1Cc1ccc([N+](=O)[O-])cc1 (stereo not given)
82	CC[C@H](NS(=O)(=O)c1ccc(OC)cc1)C(=O)OC(C)(C)C
220 to 225	NCC1(c2onc(-c3ccc(O)cc3)c2-c2ccccc2)CC1
245 to 249	CC(=O)Nc1ccccc1-c1ccc2c(c1)S(=O)(=O)NC(C1CCCCC1)N2 (stereo not given)
300 to 302	COc1ccc(Cc2n[nH]c3c2c(=O)n(-c2ccccc2)c2ncccc32)cc1
174 to 175	Cc1cc(-c2ccccc2)c2c(n1)C(C(N)=S)CCC2 (stereo not given)
139 to 141	CC(C)NC1=Nc2ccc(Cl)cc2S(=O)(=O)N1C
65 to 67	CCOc1ccccc1-c1cc(NC(=O)C2CCN(CC)CC2)ncn1
> 300	Cn1cccc(C(=O)Nc2ccc3c(c2)NC(=O)/C3=C\c2ccc[nH]2)c1=O
129 to 130	O=[N+]([O-])O[C@H]1COc2c(O)cccc2C1
111 to 114	CN1CCC(c2c[nH]c3ccc(NC(=O)c4ccccc4)nc23)CC1
145 to 147	CCC(C)(CC)c1ccc(NC(=O)c2c(OC)cccc2OC)nn1
140 to 142	CC(C)C(=O)Nc1cn(-c2cncc(F)c2)nc1C=O

melting point [°C]	SMILES
136 to 137	CC(C)(C)NC(=O)c1ccc(Cl)cc1
65	N=C(c1cc(Cl)ccc1N)C1CCCCC1
109 to 110	Nc1ncnc2c1c(-c1ccccc1Oc1ccccc1)cn2C1CCCC1
206 to 207	COc1cccc2sc3cc(=O)ccc-3nc12
98 to 100	O=C(CNC(=O)c1ccc([N+](=O)[O-])c(I)c1)OCC(Cl)(Cl)Cl
143 to 145	CC1(C)OC(c2ccc(S(N)(=O)=O)cc2)=C(c2cc3ccccc3o2)C1=O
126 to 128	COc1ccc2c(c1)c1c(n2CCC(=O)NN)CCN(C)C1
103 to 106	Cc1c(OCc2ccccc2)c(=O)ccn1CCOC(=O)C(C)(C)C
168 to 179	Cc1cccc2c1N(Cc1c[nH]cn1)C(=O)C(NC(=O)Nc1cccc(-c3nnn[nH]3)c1)N=C2C1CCCCC1 (stereo not given)
229 to 232	CC(=O)Nc1cc(I)ccc1C(=O)O
180 to 181	Cc1cc(Cl)cc(C(=O)NC(C)C2CC2)c1NC(=O)c1cc(Br)nn1-c1ccccc1Cl (stereo not given)
128 to 139	COc1cc(OCc2ccncc2)ccc1/C=C/c1cc(/C=C/c2c[nH]c3ccccc23)n[nH]1
197 to 199	CCn1c2ccccc2c2cc(NC(=S)NNC(C)=O)ccc21
110 to 112	CC(C)(Cl)C(CNC(=O)c1ccc([N+](=O)[O-])o1)N=O (stereo not given)
51 to 52	CN(C)c1cc2ccccn2n1
184 to 187	O=C(c1ccccc1)C(c1cccc2ccccc12)P(=O)(O)O (stereo not given)
287 to 288	CC(C)(COC(=O)c1ccc(C(=O)O)cc1)COC(=O)c1ccc(C(=O)O)cc1
86	Cc1cc(CC(=O)O)sc1C(=O)c1ccccc1
144 to 145	CCOCc1cc2cc(Br)ccc2oc1=Nc1ccc(Cl)cc1
207 to 208	COc1cc(O)ccc1-c1cnc2cnc(-c3ccc(O)cc3)nc2c1
250 to 252	CC(=O)N1CCN(c2ccc(Nc3nccc(-c4sc(-c5ccc(N6CCOCC6)cc5)nc4C)n3)cc2)CC1
186	Cn1cncc1C(O)c1ccc2[nH]c(=O)cc(-c3cccc(Cl)c3)c2c1 (stereo not given)
151	Nc1ccc(/C=C/c2ccccc2)cc1
200 to 202	CCCC(O)(CCC)c1ccc(Cl)c2nc3n(c12)CCCN3c1ccc(Cl)cc1C(F)(F)F
89 to 91	O=C(O)C(O)c1csc2ccccc12 (stereo not given)

melting point [°C]	SMILES
146 to 148	CCOc1ccc(C(=O)N2CCNC2=Nc2c(Cl)cccc2Cl)cc1
232 to 233	CN1CCN(c2cccc3nc4n(c(=O)c23)-c2ccc(F)cc2C4=O)CC1
94	CCCc1cc(-c2cc(OC)c3c(C)c(C)c(=O)oc3c2)on1
176	CN(C)CCCn1c(=O)c(C#N)c(N2CCN(C(=O)c3cccs3)CC2)c2cccnc21
121 to 123	CCCCC(OC)c1c(C(C)C)nc(C(C)C)c(CO)c1-c1ccc(F)cc1 (stereo not given)
246 to 248	COc1ccc(-c2[nH]c3ccccc3c(=O)c2Cc2ccncc2)cc1
321 to 322	CCOc1cc2c(c(OC(C)=O)c1OCC)=NC(=O)C(=O)N=2
134 to 135	COc1ccc(C(=C(C)C(=O)O)c2ccc(OC)cc2)cc1
113 to 119	COC(=O)[C@H](Cc1ccc(CC(=O)O)c(C2SCCS2)c1)NC(C)=O
184 to 186	CCCn1cc2c(C3(F)C(=O)Nc4ccc(Br)cc43)ncnc2n1 (stereo not given)
172 to 173	Cn1cc2c(n1)-c1cnn(C)c1CC2(C)C
103 to 104	O=C(O)c1ccc2c(c1)Sc1cc3c(cc1C=C2)CCC3
98 to 100	O=C1c2c(Cl)cccc2OCN1CCO[N+](=O)[O-]
194 to 195	CC(C)=NOCc1nc2c(N)nc3ccccc3c2n1CC(C)C
250 to 253	COc1cccc2c1nc(C(F)F)n2-c1nc(N2CCOCC2)c2cnn(C3CCN(S(=O)(=O)CCl)CC3)c2n1
72 to 75	COc1ncccc1C(=O)NCC1CCN(C[C@H]2COc3ccc(Cl)cc3O2)CC1
173 to 175	O=c1ccc(-c2ccccc2F)n[nH]1
162 to 163	O=C(O)[C@H](CCCCO)N1C(=O)c2ccccc2C1=O
161 to 162	Cc1csc2ncc(CO)n12
102 to 103	Fc1ccc(COc2ncc(F)c(N=CN3CCCC3)n2)cc1
122 to 124	CCCCNCC1CCn2c(nc3ccccc32)S1 (stereo not given)
121 to 122	CCOc1cc(OCCOCc2ccccc2)cc2c1C(=O)N(COC(=O)c1c(Cl)cccc1Cl)S2(=O)=O
229 to 231	O=C(Nc1ccccc1)Nc1ncc(Oc2ccc(Cl)cc2)c(N2CCOCC2)n1
160 to 161	Cc1nc(C)c2c(n1)N(Cc1ccc(-c3ccccc3-c3nnnn3C(c3ccccc3)(c3ccccc3)c3ccccc3)cc1)C(=O)CC2
> 225	Cc1sc2c(Br)c3ccccc3c(-c3ccc(OS(=O)(=O)c4ccc(C(=O)O)c(O)c4)c(C4CCCC4)c3)c2c1C

melting point [°C]	SMILES
155 to 157	CC(C)c1nc(C(C)C)c(C(C)O)c(-c2ccc(F)cc2)c1-c1ccccc1 (stereo not given)
280 to 281	COc1ccc(NC=C2C(=O)OC(=O)c3cc4cccc(C)c4nc32)cc1OC
189 to 192	O=C1OC[C@@H](CO)N1c1nc(-c2ccc(Br)cc2)cs1
99 to 101	CNc1ccc([N+](=O)[O-])cc1C(F)(F)F
196	CCCc1cc(=O)[nH]c(NC(=N)Nc2ccccc2)n1
190	CC(=Cc1ccccc1)n1c(=O)[nH]c2ccc(F)cc21
147 to 150	Cc1ncncc1C(=O)Nc1cc(F)c(-n2nc(C(F)(F)F)cc2C2CC2)c(F)c1
134 to 135	C[C@@H](n1cnc2c(Br)cc(Br)cc2c1=O)[C@](O)(Cn1cncn1)c1ccc(F)cc1F
> 199	OCc1ccc(/C=C/c2ccncc2)nc1
138 to 140	CC=CCSc1cc(C(=O)O)cc([N+](=O)[O-])c1-c1ccccc1
284 to 286	CC(C)(O)Cn1c(CO)nc2c(N)nc3cc(OCc4ccccc4)ccc3c21
172 to 174	Cc1c(NC(=O)c2ccc(-c3ccc(F)cc3)cc2)ccc2cc(CN3CCCC3Cc3ccccc3)cnc12 (stereo not given)
190 to 195	Cc1oc2c(NC(=O)c3c(Cl)cccc3Cl)cccc2c1COC(=O)CCCC(=O)NC(P(=O)(O)O)P(=O)(O)O
170 to 172	Cc1ccnc(Cn2ccnc2)c1O
132 to 134	CNc1cc(F)ccc1C(=O)Cc1nnnn1C
151 to 153	COc1ccc(C(=O)OC2CC3C(=O)NC4(C(=O)NS(=O)(=O)C5CC5)CC4C=CCCCCCC(NC(=O)OC(C)(C)C)C(=O)N3C2)cc1 (stereo not given)
> 250	NS(=O)(=O)c1ccc(NN=C2C(=O)Nc3ccc(S(N)(=O)=O)cc32)cc1
218 to 221	Nc1ncnc2c1ncn2OCC(O)COCP(=O)(O)O (stereo not given)
95 to 98	CCOC(=O)c1c(SC)nn(-c2c(Cl)cc(Cl)cc2Cl)c1C
87	COc1ccc(C(=O)c2ccccc2)cc1Cl
186 to 187	O=C1CCCc2ccc(OCCCCN3CCN(c4cccc5c4OCCC5)CC3)nc2N1
211 to 213	Cn1ccc(-c2cc3nccnc3[nH]2)c1

SMILES	melting point [°C]
O=C(CCl)Nc1ccccc1O	133 to 134
COc1ccc(N(C(=O)CN2C(=O)C(Cc3n[nH]c4ncccc34)C(=O)N(c3ccccc3)c3ccccc32)C(C)C)cc1 (stereo not given)	156 to 158
CC[C@H]1[C@H](O)CC(=O)N1c1ccc(C#N)c(Cl)c1C	142 to 146
